Results: patent US8889156B2, “Calcium-binding agents induce hair growth and/or nail growth” (priority 2009, dated 2014)

How the values were obtained:
[1] = Nucleation of hydroxyapatite on tooth dentin (SBFn/SBFg, SEM); parameters: species or system human; conditions: nondemineralized dentin, 12.5 μM peptide
Method: To determine whether applying DSS to various preparations of tissue promoted HA nucleation, that could ultimately lead to tissue remineralization, sagittally sectioned adult human teeth (obtained after extraction during normal clinical practice) were polished using a Streurs grinding wheel, and prepared for nucleation experiments. Half of the sections were demineralized with 35% phosphoric acid for 15 minutes, then rinsed thoroughly with deionized water. The other half were left untreated. All samples were then sonicated for five minutes to remove excess debris left from cutting and grinding and/or demineralization. Samples were treated with 12.5 μM 8DSS dissolved in 50 mM HEPES buffer solution (pH 7.0), buffer solution only, or left untreated. Samples were then immersed into a simulated body fluid (SBFn), meant to accelerate nucleation of hydroxyapatite (HA) crystals, for 4 hours. Following the nucleation step, samples were immersed in a magnesium and bicarbonate free solution (SBFg) in order to allow the nucleated HA crystals to grow. […] Both solutions were adjusted to pH 6.8. Crystals were grown in order to amplify the nucleated crystals for easy visualization by SEM.

[2] = Tissue specific binding of labeled peptides to sections of human teeth (CLSM); conditions: 5(6)-carboxyfluorescein-labeled peptide, ten minutes
Excerpt: In order to investigate the tissue specificity of DSS peptide binding to tooth tissue, sections of human teeth were exposed to DSS peptides and variants, then imaged by CLSM. The peptides utilized for these experiments were 8DSS (SEQ ID NO:33), 8ASS (SEQ ID NO:26), 8DAA (SEQ ID NO:40), 8NAA (SEQ ID NO:41), 4DSS (SEQ ID NO:31), 4ESS (SEQ ID NO:34), 4NSS (SEQ ID NO:35), 4DTT (SEQ ID NO:36), 4ETT (SEQ ID NO:37), 4NTT (SEQ ID NO:38), and 6DSS (SEQ ID NO:32). Sagittal sections of human teeth extracted during normal clinical practice were polished and then incubated for ten minutes in a solution of the appropriate 5(6) carboxyfluorescein-labeled peptide (12.5pM) containing 10 mM NaCl and 50 mM HEPES, pH 7.0. Control samples were prepared without peptide. Samples were washed extensively after treatment and imaged by CLSM using blue laser illumination (A=488 nm) and a FITC emission filter, with identical camera and microscope settings for each sample. For each section, multiple scans were collected and assembled in an automated mode to generate panels of images representing an area of 13×13 mm, sufficient in most cases to encompass the whole section. […] Significant binding was also seen to the edges of the pulp cavity.

[3] = Binding of calcium phosphate to immobilized DSS peptides on streptavidin-coated polystyrene beads; conditions: biotin-conjugated peptide on beads, saturated CaHPO4 solutions
Method: Streptavidin-coated polystyrene beads with an average diameter of 4 μm (Spherotech, Lake Forest, Ill.) were incubated with either biotin-conjugated 8DSS (SEQ ID NO:33) peptide or unconjugated biotin (control beads). Beads were washed with PBS to remove unbound peptide (or unbound biotin in control beads) and incubated in a solution of PBS+1 mM CaCl2+1 mM NaHPO4 for 12 days prior to imaging. […] DSS-containing peptides containing C-terminal biotin labels were then synthesized and immobilized on streptavidin-coated beads. The beads were washed and incubated in solutions containing varying concentrations of CaHPO4 as before. Consistent with previous observations for the dentin phosphoproteins/phosphosphoryns as well as other phosphoproteins (Saito et al. (1997) Bone 21: 305-311; Saito et al. (2000) J Bone Miner Res., 15: 1615-1619), these immobilized peptides caused coaggregation of the beads with particles of amorphous CaHPO4 and eventually led to the deposition of crystalline material around the bead. […] By comparison, in the biotin-blocked control sample, nearly all beads were unaggregated and unassociated with precipitate (FIG. 9, panel B).

[4] = Binding of labeled peptide to sagittally sectioned adult human molars (CLSM, Example 6); conditions: fluorescein-labeled peptide, 10 min
Method: For binding experiments, sagittally sectioned adult human molars were incubated for 10 min in a solution of 12.5 p.M 5(6)-carboxyfluorescein-labeled 6DSS (SEQ ID NO:32) peptide containing 10 mM NaCl and 50 mM HEPES, pH 7.0. Control samples were prepared without peptide. Samples were rinsed after treatment and imaged by confocal laser scanning microscopy (CLSM) with illumination by a blue Kr/Ar laser (λ=488 nm) and a FITC emission filter. To test binding of DSS-containing peptides to biological tissue, sagittally sectioned human teeth were incubated treated with 6DSS (SEQ ID NO:32) (control samples were prepared without peptide), washed, and imaged by CLSM.

With “DSS DSS DSSDSS DSS DSS DSS DSS (DSSDSSDSSDSSDSSDSSDSSDSS; synthetic calcium-binding peptide 8DSS)” the “crystal growth (nucleation) on dentin” value [1] was “the most significant growth”, the “tissue pattern of binding in the tooth section” value [2] was “bound primarily to the mantle dentin” and the “level of binding (staining) to tooth surfaces” value ([2]; identical settings) was “the greatest levels of staining”. For the same substance, the “aggregation/accretion of calcium phosphate by immobilized peptide” value [3] was “effectively aggregate amorphous calcium phosphate”, the binding to dentin [4] was “binds tightly to the dentin” and the binding to enamel [4] was “binding to the enamel almost completely absent”.
